Experimental data as given in patent publication US20250161396A1, “COMPOSITION AND METHOD FOR IMPROVING LIPID METABOLISM FUNCTION OF SUBJECT” (NANJING NUTRABUILDING BIO-TECH CO., LTD., priority 2022, published 2025).

Assays:
Assay type in all cases: in vivo
[1] = test system: high fat diet (HFD) mice; assay: Body fat mass of high fat diet mice after 16 weeks of treatment
Method: (§1) Mice were divided into five groups: one group was normal diet mice as ND control group; one group of high fat diet (HFD) mice were gavaged with no-active-ingredients water as HFD control group, one group of HFD mice were treated with BAIBA (65 mg/kg/day) alone by gavage as HFD+BAIBA group, one group of HFD mice were treated with GP (5.2 mg/kg/day) alone by gavage as HFD+GP group, and one group of HFD mice were treated with BAIBA (65 mg/kg/day) and GP (5.2 mg/kg/day) combination by gavage as HFD+BAIBA+GP group, all for 16 weeks.
Adipose tissue was collected, fixed with 10% formalin, embedded in paraffin, and dehydrated by graded alcohol. Tissue sections with a thickness of 5 μm were prepared, stained with hematoxylin-eosin (H&E) and observed under an optical microscope with a magnification of 200 times. The body fat mass of each group of mice was measured and recorded.

[2] = test system: high fat diet (HFD) mice; assay: Body weight of high fat diet mice after 16 weeks of treatment
Method: as §1
At the beginning of treatment (baseline), the body weights of the five groups of mice were the same.

[3] = test system: high fat diet (HFD) mice; assay: Oral glucose tolerance test (OGTT); settings: 8th week
Method: as §1
(§2) At the 8th week after the initial experiment, oral glucose tolerance test (OGTT) and insulin tolerance test (ITT) were performed on mice. OGTT is as follows: Blood from tail tip of mice was taken to detect blood glucose, and glucose (1.5 g/kg) was given by gavage after overnight fasting, and blood glucose was monitored with a blood glucose meter before administration and 15, 30, 60, 90 and 120 minutes after administration. ITT is as follows: Insulin (0.75 U/kg) was given by intraperitoneal injection on an empty stomach, and blood glucose was monitored with a blood glucose meter before administration and 15, 30, 60, 90 and 120 minutes after administration.

[4] = test system: high fat diet (HFD) mice; assay: Serum leptin level by ELISA kit; settings: after 16 weeks of gavage
Method: as §1
The serum of mice was centrifuged, and the level of leptin in serum was determined by ELISA kit. According to the concentration value and light absorption value of leptin, the logarithmic value was taken as a standard curve, and the concentration value of leptin was converted according to the standard curve.

[5] = test system: high fat diet (HFD) mice; assay: Insulin tolerance test (ITT); settings: 8th week
Method: as §1, §2
As shown in Table 2 and FIG. 3B, after 15 minutes, the blood glucose level of mice in HFD control group decreased greatly, and the blood glucose level before and after the end of insulin half-life was higher than that in other groups. […] It can be seen that the combination of BAIBA and GP can reduce the insulin resistance of mice, that is, improve the insulin sensitivity.

[6] = test system: high fat diet (HFD) mice; assay: Serum triglyceride (TG) level by commercial kit; settings: after 16 weeks of gavage
Method: as §1
(§3) After the mice were killed, the serum was extracted by centrifugation, and the levels of triglyceride (TG) and total cholesterol (TC) in mice were measured by using commercial kits according to the instructions and recorded.

[7] = test system: high fat diet (HFD) mice; assay: Serum total cholesterol (TC) level by commercial kit; settings: after 16 weeks of gavage
Method: as §1, §3

[8] = gavage, BAIBA 65 mg/kg/day and/or GP 5.2 mg/kg/day, after 16 weeks
[9] = versus HFD control, after 16 weeks of gavage

**Q.** CC(CN)C(=O)O (stereo not drawn) [BAIBA, β-aminoisobutyric acid] was tested. Which body fat mass [1, 8] did it give?
**A.** The body fat mass was 5.38 g.

**Q.** And the “body fat mass reduced by” value [1, 9]?
**A.** Its value is 13.78%.

**Q.** And the body weight [2, 8]?
**A.** The body weight was 47.8 g.

**Q.** What about the “body weight reduced by” value [2, 9] of the same compound?
**A.** Its value is 2.84%.

**Q.** What about the “blood glucose level in OGTT, 15 min” value ([3]; 15 min after glucose 1.5 g/kg by gavage) of the same compound?
**A.** Its value is 281.91 mg/dL.

**Q.** What about the “blood glucose level in OGTT, 30 min” value ([3]; 30 min after glucose 1.5 g/kg by gavage) of the same compound?
**A.** The value was 352.74 mg/dL.

**Q.** And the “blood glucose level in OGTT, 60 min” value ([3]; 60 min after glucose 1.5 g/kg by gavage)?
**A.** The value was 411.98 mg/dL.

**Q.** And the “blood glucose level in OGTT, 90 min” value ([3]; 90 min after glucose 1.5 g/kg by gavage)?
**A.** The value was 253.21 mg/dL.

**Q.** What about the “blood glucose level in OGTT, 120 min” value ([3]; 120 min after glucose 1.5 g/kg by gavage) of the same compound?
**A.** The value was 192.99 mg/dL.

**Q.** What about the “blood glucose level in OGTT compared with other groups, in words” value ([3]; across time points) of the same compound?
**A.** Its value is “lower than that in HFD control group at each time point”.

**Q.** What about the “blood glucose level in OGTT, pre-dose” value ([3]; overnight fasting, before glucose 1.5 g/kg by gavage) of the same compound?
**A.** The value was 199.85 mg/dL.

**Q.** And the leptin level [4]?
**A.** Its leptin level is 278.12 pg/mL.

**Q.** And the “blood glucose level in ITT, 15 min” value ([5]; 15 min after insulin 0.75 U/kg intraperitoneal)?
**A.** The value was 105.23 mg/dL.

**Q.** And the “blood glucose level in ITT, 30 min” value ([5]; 30 min after insulin 0.75 U/kg intraperitoneal)?
**A.** The value was 101.45 mg/dL.

**Q.** What about the “blood glucose level in ITT, 60 min” value ([5]; 60 min after insulin 0.75 U/kg intraperitoneal) of the same compound?
**A.** Its value is 90.45 mg/dL.

**Q.** What about the “blood glucose level in ITT, 90 min” value ([5]; 90 min after insulin 0.75 U/kg intraperitoneal) of the same compound?
**A.** The value was 95.24 mg/dL.

**Q.** What about the “blood glucose level in ITT, 120 min” value ([5]; 120 min after insulin 0.75 U/kg intraperitoneal) of the same compound?
**A.** Its value is 92.56 mg/dL.

**Q.** And the “blood glucose level in ITT compared with other groups, in words” value ([5]; across time points)?
**A.** Its value is “higher than that in HFD control group at each time point”.

**Q.** And the “blood glucose level in ITT, pre-dose” value ([5]; empty stomach, before insulin 0.75 U/kg intraperitoneal)?
**A.** Its value is 140.4 mg/dL.

**Q.** What about the “triglyceride (TG) level” value [6] of the same compound?
**A.** Its value is 98.45 mg/dL.

**Q.** And the “total cholesterol (TC) level” value [7]?
**A.** Its value is 220.65 mg/dL.
